The record followed here is patent EP0070133B1, “Secondary phenylethanol amines, processes for their preparation and their pharmaceutical application” (priority 1981, dated 1983).

Test [1] concerns Female CFLP mice. Description: Effect on energy expenditure and food intake of mice. The test is classed as in vivo. Conditions: Mus musculus; for response vs control in vivo at 24.6 mg/kg / response vs control in vivo at 30.2 mg/kg / response vs control in vivo at 28.9 mg/kg / response vs control in vivo at 24.2 mg/kg / response vs control in vivo at 29.5 mg/kg / response vs control in vivo at 26.9 mg/kg / response vs control in vivo at 23.4 mg/kg / response vs control in vivo at 22 mg/kg / response vs control in vivo at 27.3 mg/kg / response vs control in vivo at 6.5 mg/kg / response vs control in vivo at 25.5 mg/kg / response vs control in vivo at 26.4 mg/kg / response vs control in vivo at 21.8 mg/kg / response vs control in vivo at 22.6 mg/kg / response vs control in vivo at 26.3 mg/kg: po, 21 h; for response vs control in vivo at 18.4 mg/kg: 18.4 mg/kg po, mice, 21 hours after dosing, % of mice dosed with water.
Procedure: Female CFLP mice each weighing approximately 24 g, were given food and water ad lib before and during the experiment. The compounds were dissolved in water by addition of one mole of hydrochloric acid per mole of compound and these solutions were administered orally to each of 12 mice. A further 12 mice were dosed orally with water. The mice were placed in boxes through which air was drawn and the oxygen content of the air leaving the boxes was measured. […] The food intake of the mice was measured over this same period of 21 hours. The results are expressed as a percentage of the mean food intake or rate of energy expenditure of the mice dosed with water.

For test [2], the system named is Female CFLP mice. Description: Anti-hyperglycaemic activity: subcutaneous glucose load in fasted mice, area under blood glucose curve. The conditions noted are these: glucose 1 g/kg sc, 2 hour period, vs water control. The format is in vivo. How it is done:
Female CFLP mice, each weighing approximately 25 g, were fasted for 24 hours prior to the study. The compounds under study were administered orally as an aqueous solution to each of 6 mice. 6 mice were given water as a control. 30 minutes later a blood sample (20 µl) was obtained from the tail for the analysis of blood glucose. Immediately after taking this blood sample, glucose (1 g/kg body weight) was administered subcutaneously to each mouse. Blood samples were then obtained from each mouse at 30 minute intervals for 120 minutes.
Compounds that produced a significant (P<0.05) reduction of blood glucose, compared with control mice given water, at any time interval, were considered active. The area under the blood glucose curve over the 2 hour period after the administration of the glucose was calculated for each compound and compared with the value for control animals.

[3] abbreviates: read-out: Mean Energy Expenditure (%).

Where a name gives a salt, the structure may show the parent alone. Read-outs that look alike come from different tables or passages of the source.

For `CNCCOc1ccc(CC(C)NCC(O)c2cc3ccccc3o2)cc1.Cl.Cl` (stereo not shown) [Example 4, N-[2-(4-(2-Methylaminoethoxy)phenyl)-1-methylethyl]-2-hydroxy-2-(2-benzofuranyl) ethanamine dihydrochloride], the response vs control in vivo at 24.6 mg/kg in the test with Female CFLP mice [1] (setting [3]) is 110%; in the test with Female CFLP mice [1] (read-out: Mean Food Intake (%)) it was 76%. Also, the “Reduction in area under Blood glucose curve (%)” value (shortened to “Reduction in area … (%)”) in the test on Female CFLP mice [2] (2.5 μ moles/kg po) worked out at 18%.

In the case of `Br.Br.CNCCOc1ccc(CC(C)NCC(O)c2cccc(Cl)c2)cc1F` (stereo not shown) [Example 5, N-[2-(3-Fluoro-4-(2-methylaminoethoxy)phenyl)-1-methylethyl)-2-hydroxy-2-(3-chlorophenyl) ethanamine dihydrobromide], the figures for the response vs control in vivo at 30.2 mg/kg in the test on Female CFLP mice [1] (setting [3]) and in the test on Female CFLP mice [1] (read-out: Mean Food Intake (%)) were 134% and 102%, respectively. Besides, the “Reduction in area … (%)” value in the test on Female CFLP mice [2] (1 μ moles/kg po) turned out to be 38%.

Consider `Br.Br.CCc1cccc(C(O)CNC(C)Cc2ccc(OCCNC)cc2)c1` (stereo not shown) [Example 6, N-[2-(4-(2-Methylaminoethoxy)phenyl)-1-methylethyl]-2-hydroxy-2-(3-ethylphenyl)ethanamine dihydrobromide], for which the figures for the response vs control in vivo at 28.9 mg/kg in the test on Female CFLP mice [1] (setting [3]) and with Female CFLP mice [1] (read-out: Mean Food Intake (%)) were 97% and 98%, respectively. For the same molecule, in the test with Female CFLP mice [2] (50 μ moles/kg po), the “Reduction in area … (%)” value stood at 36.5%.

Regarding `CNCCOc1ccc(CC(C)NCC(O)c2ccc(Cl)cc2)cc1` (stereo not shown) [Example 12, N-[2-(4-(2-Methylaminoethoxy)phenyl)-1-methylethyl]-2-hydroxy-2-(4-chlorophenyl)ethanamine dihydrochloride], the figures for the response vs control in vivo at 24.2 mg/kg in the test on Female CFLP mice [1] (setting [3]) and in the test with Female CFLP mice [1] (read-out: Mean Food Intake (%)) were 120% and 99%, respectively.

On to `CC(Cc1ccc(OCCNCc2ccccc2)cc1)NCC(O)c1cccc(Cl)c1` (stereo not shown) [Example 13, N-[2-4-(2-Benzylaminoethoxy)phenyl)-1-methylethyl]-2-hydroxy-2-(3-chlorophenyl)ethanamine dihydrochloride monohydrate], for which the figures for the response vs control in vivo at 29.5 mg/kg with Female CFLP mice [1] (setting [3]) and in the test with Female CFLP mice [1] (read-out: Mean Food Intake (%)) were 139% and 78%, respectively. In the test with Female CFLP mice [2] (1 μ moles/kg po), the “Reduction in area … (%)” value was determined as 62%.

Regarding `CC(Cc1ccc(OCCN2CCCCCC2)cc1)NCC(O)c1cccc(C(F)(F)F)c1` (stereo not shown) [Example 15, N-[2-(4-(2-(1-Homopiperidine)ethoxy)phenyl)-1-methylethyl]-2-hydroxy-2-(3-trifluoromethylphenyl)-ethanamine dihydrochloride], the figures for the response vs control in vivo at 26.9 mg/kg in the test with Female CFLP mice [1] (setting [3]) and in the test on Female CFLP mice [1] (read-out: Mean Food Intake (%)) were 117% and 77%, respectively. In the test with Female CFLP mice [2] (1 μ moles/kg po), the “Reduction in area … (%)” value came to 17%.

For the molecule `CCOC(=O)NCCOc1ccc(CC(C)NCC(O)c2cccc(Cl)c2)cc1` (stereo not shown) [Example 16, N-[2-(4-(2-Ethoxycarbonylamioethoxy)phenyl)-1-methylethyl]-2-hydroxy-2-(3-chlorophenyl)ethanamine], the response vs control in vivo at 23.4 mg/kg with Female CFLP mice [1] (setting [3]) was determined as 141%; with Female CFLP mice [1] (read-out: Mean Food Intake (%)), 91%. For the same molecule, the “Reduction in area … (%)” value in the test on Female CFLP mice [2] (1 μ moles/kg po) was 68%.

Take `CNC(=O)NCCOc1ccc(CC(C)NCC(O)c2cccc(C(F)(F)F)c2)cc1` (stereo not shown) [Example 17, N-[2-(4-(2-Methylaminocarbonylaminoethoxy)phenyl)-1-methylethyl]-2-hydroxy-2-(3-trifluoromethylphenyl)ethanamine]: the values for the response vs control in vivo at 22 mg/kg with Female CFLP mice [1] (setting [3]) and in the test with Female CFLP mice [1] (read-out: Mean Food Intake (%)) were 114% and 87%, respectively.

Consider `CC(Cc1ccc(OCCN)cc1)NCC(O)c1cccc(C(F)(F)F)c1.Cl.Cl.O.O` (stereo not shown) [Example 19, N-[2-(4-(2-Aminoethoxy)phenyl)-1-methylethyl]-2-hydroxy-2-(3-trifluoromethylphenyl)ethanamine dihydrochloride, dihydrate], for which the response vs control in vivo at 27.3 mg/kg came to 135% with Female CFLP mice [1] (setting [3]) and 94% in the test with Female CFLP mice [1] (read-out: Mean Food Intake (%)). For the same molecule, the “Reduction in area … (%)” value with Female CFLP mice [2] (1 μ moles/kg po) turned out to be 46%.

`CNCCOc1ccc(C[C@H](C)NC[C@H](O)c2cccc(C(F)(F)F)c2)cc1` [Example 23, N-[2-(4-(2-Methylaminoethoxy)phenyl)-1-methylethyl]-2-hydroxy-2-(3-trifluoromethylphenyl)ethanamine dihydrochloride, (RS,SR) diastereoisomer]: the response vs control in vivo at 6.5 mg/kg in the test with Female CFLP mice [1] (setting [3]) came out at 109%; in the test with Female CFLP mice [1] (read-out: Mean Food Intake (%)), 112%. The “Reduction in area … (%)” value in the test on Female CFLP mice [2] (2.5 μ moles/kg po) came to 20%.

As to `CC(Cc1ccc(OCCN2CCCC2)cc1)NCC(O)c1cccc(C(F)(F)F)c1` (stereo not shown) [Example 25, N-[2-(4-(2-11-Pyrrolidine)ethoxy)phenyl)-1-methylethyl]-2-hydroxy-2-(3-trifluoromethylphenyl)ethanamine dihydrochloride], the response vs control in vivo at 25.5 mg/kg came out at 117% with Female CFLP mice [1] (setting [3]) and 87% in the test on Female CFLP mice [1] (read-out: Mean Food Intake (%)).

Take `CC(Cc1ccc(OCCN2CCCCC2)cc1)NCC(O)c1cccc(C(F)(F)F)c1` (stereo not shown) [Example 26, N-[2-(4-(2-(1-Piperidine)ethoxy)phenyl)-1-methylethyl]-2-hydroxy-2-(3-trifluoromethylphenyl)ethanamine dihydrochloride monohydrate]: the response vs control in vivo at 26.4 mg/kg in the test with Female CFLP mice [1] (setting [3]) was found to be 125%; in the test with Female CFLP mice [1] (read-out: Mean Food Intake (%)), 63%.

For the molecule `CCNCCOc1ccc(CC(C)NCC(O)c2cccc(C(F)(F)F)c2)cc1` (stereo not shown) [Example 27, N-[2-(4-(2-Ethylaminoethoxy)phenyll-1-methylethyl]-2-hydroxy-2-(3-trifluoromethylphenyl)ethanaminedihydrochloride], the response vs control in vivo at 24.2 mg/kg with Female CFLP mice [1] (setting [3]) was found to be 143%; in the test on Female CFLP mice [1] (read-out: Mean Food Intake (%)), 100%.

For `CNCCOc1ccc(C[C@@H](C)NC[C@H](O)c2cccc(Cl)c2)cc1` [Example 28, N-[2-(4-(2-Methylaminoethoxy)phenyl)-1-methylethyl]-2-hydroxy-2-(3-chlorophenyl)ethanamine dihydrochloride - (RR,SS) diastereoisomer], the response vs control in vivo at 21.8 mg/kg in the test with Female CFLP mice [1] (setting [3]) is 135%; in the test with Female CFLP mice [1] (read-out: Mean Food Intake (%)), 108%. In addition, the “Reduction in area … (%)” value with Female CFLP mice [2] (0.5 μ moles/kg po) is 42%.

For `CNCCOc1cccc(CC(C)NCC(O)c2cccc(Cl)c2)c1` (stereo not shown) [Example 29, N-[2-(3-(2-Methylaminoethoxy)phenyll-1-methylethyl]-2-hydroxy-2-(3-chlorophenyl)ethanaminedihydrochloride], the response vs control in vivo at 21.8 mg/kg in the test with Female CFLP mice [1] (setting [3]) amounted to 123%; with Female CFLP mice [1] (read-out: Mean Food Intake (%)), 107%. Moreover, the “Reduction in area … (%)” value with Female CFLP mice [2] (12.5 μ moles/kg po) worked out at 48%.

For the molecule `CC(Cc1ccc(OCCN2CCOCC2)cc1)NCC(O)c1cccc(C(F)(F)F)c1` (stereo not shown) [Example 30, N-[2-(4-(2-(1-Morpholine)ethoxy)phenyl)-1-methylethyl]-2-hydroxy-2-(3-trifluoromethylphenyl)ethanamine], the response vs control in vivo at 22.6 mg/kg with Female CFLP mice [1] (setting [3]) was found to be 125%; in the test with Female CFLP mice [1] (read-out: Mean Food Intake (%)), 95%.

Consider `CNCCCCCCOc1ccc(CC(C)NCC(O)c2cccc(C(F)(F)F)c2)cc1` (stereo not shown) [Example 33, N-[2-(4-(6-Methylaminohexyloxy)phenyl)-1-methylethyl]-2-hydroxy-2-(3-trifluoromethylphenyl)-ethanamine dihydrochloride], for which the response vs control in vivo at 26.3 mg/kg in the test with Female CFLP mice [1] (setting [3]) stood at 131%; in the test on Female CFLP mice [1] (read-out: Mean Food Intake (%)), 80%.

For `NCCOc1ccc(CCNCC(O)c2cccc(C(F)(F)F)c2)cc1` (stereo not shown) [Example 34, N-[2-(4-(2-Aminoethoxy)phenyl)ethyl]-2-hydroxy-2-(3-trifluoromethylphenyl)ethanamine], the figures for the response vs control in vivo at 18.4 mg/kg in the test with Female CFLP mice [1] (setting [3]) and with Female CFLP mice [1] (read-out: Mean Food Intake (%)) were 117% and 103%, respectively.
